IC50 data for 13 molecules are collected here from patent publication US11639353B2, “Cyclobutanes- and azetidine-containing mono and spirocyclic compounds as αV integrin inhibitors” (BRISTOL-MYERS SQUIBB COMPANY, priority 2016, dated 2023).

Settings in all cases: alternatively SPA-based assay
One experiment addresses human αVβ3 (Homo sapiens, UniProt P05106+P06756). The experiment in a line: human αVβ3 HTRF binding assay. The protocol:
(§1) All binding assays used the HTRF (homogeneous time resolved fluorescence) technology from Cisbio International, therefore all assays are described as HTRF binding assays. The assay results for the Examples are listed above together with the characterization data. The HTRF binding assays are established for the following integrins: human αVβ6, human αVβ1, human αVβ3, human αVβ5, and human αVβ8. All assays used the following assay buffer: 20 mM Tris, pH 7.4, 1 mM MgCl2, 1 mM MnCl2, 0.01% Tween 20, and 0.01% BSA. Alternatively, a SPA-based assay was used for evaluation of receptor binding.
(§2) The SPA-based assay was carried out according to the protocol and procedures similar to the ones described in the following reference with appropriate modifications to agents and ligands which are readily understood by one skilled in the art: Pachter J A, Zhang R, Mayer-Ezell R., “Scintillation proximity assay to measure binding of soluble fibronectin to antibody-captured αVβ1 integrin” Anal Biochem. 1995 Sep. 1; 230(1):101-7.
(Time-resolved FRET reads energy transfer from a long-lived donor to a nearby acceptor.)

Another experiment has as its target human αVβ1 (Homo sapiens, UniProt P05556+P06756). Nature of the experiment: human αVβ1 HTRF binding assay. The protocol: as §1, §2
The target in another experiment is T1, human αVβ6 (Homo sapiens, UniProt P06756+P18564).
T1 construct: purchased R & D systems 3817-AV
Nature of the experiment: human αVβ6 HTRF binding assay. The gist of the method: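 Biotinylated recombinant human αVβ6 (1.25 nM final) incubated with FITC-fibronectin (5 nM final) 1 h at RT, then streptavidin-terbium (0.625 nM final) added and left overnight at RT in the dark before HTRF reading. Buffer: 20 mM Tris pH 7.4, 1 mM MgCl2, 1 mM MnCl2, 0.01% Tween 20, 0.01% BSA.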

The next experiment deals with human αVβ5 (Homo sapiens, UniProt P06756+P18084). Nature of the experiment: human αVβ5 HTRF binding assay. The protocol:
as §1, §2

The next experiment concerns the target human αVβ8 (Homo sapiens, UniProt P06756+P26012). The experiment in a line: human αVβ8 HTRF binding assay. The protocol:
as §1, §2

Sequence of human αVβ8 (P06756 31-992 limits assumed): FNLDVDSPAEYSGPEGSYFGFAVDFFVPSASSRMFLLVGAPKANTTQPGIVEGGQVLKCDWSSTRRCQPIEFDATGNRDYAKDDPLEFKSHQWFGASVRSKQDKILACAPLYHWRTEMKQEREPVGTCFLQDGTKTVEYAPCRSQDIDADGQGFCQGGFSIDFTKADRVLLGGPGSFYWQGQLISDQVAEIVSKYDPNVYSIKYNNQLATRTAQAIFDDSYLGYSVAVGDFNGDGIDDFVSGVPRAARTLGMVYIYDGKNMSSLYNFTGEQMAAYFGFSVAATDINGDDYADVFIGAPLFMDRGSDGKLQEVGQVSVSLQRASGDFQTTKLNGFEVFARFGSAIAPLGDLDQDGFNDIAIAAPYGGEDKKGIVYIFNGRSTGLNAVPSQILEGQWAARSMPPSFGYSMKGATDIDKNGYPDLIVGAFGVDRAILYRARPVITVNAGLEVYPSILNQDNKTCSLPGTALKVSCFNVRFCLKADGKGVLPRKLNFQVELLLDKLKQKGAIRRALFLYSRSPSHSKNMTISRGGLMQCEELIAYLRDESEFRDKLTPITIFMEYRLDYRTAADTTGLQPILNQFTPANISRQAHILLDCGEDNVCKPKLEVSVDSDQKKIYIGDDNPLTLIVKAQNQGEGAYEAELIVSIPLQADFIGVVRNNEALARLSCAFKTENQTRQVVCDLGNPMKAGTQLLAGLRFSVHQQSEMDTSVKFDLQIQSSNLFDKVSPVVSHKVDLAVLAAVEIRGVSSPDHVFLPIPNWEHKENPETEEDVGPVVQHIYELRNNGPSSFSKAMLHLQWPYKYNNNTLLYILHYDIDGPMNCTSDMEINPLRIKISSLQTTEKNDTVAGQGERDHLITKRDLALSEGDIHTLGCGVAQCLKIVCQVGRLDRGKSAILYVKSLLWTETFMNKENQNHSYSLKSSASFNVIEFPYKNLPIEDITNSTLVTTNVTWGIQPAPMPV
Sequence of human αVβ8 (P26012 43-684 limits assumed): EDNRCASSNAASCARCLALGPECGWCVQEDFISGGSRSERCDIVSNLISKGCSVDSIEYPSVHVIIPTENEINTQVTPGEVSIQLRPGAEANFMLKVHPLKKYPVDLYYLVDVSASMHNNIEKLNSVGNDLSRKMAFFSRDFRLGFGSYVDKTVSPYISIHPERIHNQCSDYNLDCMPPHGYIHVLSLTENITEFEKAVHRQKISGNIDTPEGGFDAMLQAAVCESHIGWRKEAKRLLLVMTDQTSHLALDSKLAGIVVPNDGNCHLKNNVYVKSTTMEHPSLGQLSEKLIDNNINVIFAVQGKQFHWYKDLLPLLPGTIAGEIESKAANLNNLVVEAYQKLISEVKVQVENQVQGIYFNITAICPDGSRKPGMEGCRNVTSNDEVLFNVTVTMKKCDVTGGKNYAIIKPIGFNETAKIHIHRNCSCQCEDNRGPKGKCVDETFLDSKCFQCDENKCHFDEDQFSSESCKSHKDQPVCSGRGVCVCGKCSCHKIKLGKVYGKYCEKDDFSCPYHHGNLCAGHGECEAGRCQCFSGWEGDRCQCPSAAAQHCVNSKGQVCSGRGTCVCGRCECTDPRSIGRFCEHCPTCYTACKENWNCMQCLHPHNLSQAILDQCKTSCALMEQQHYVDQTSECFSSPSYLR
Sequence of human αVβ3 (P06756 31-992 limits assumed): as the sequence (P06756 31-992 limits assumed) above
Sequence of human αVβ3 (P05106 27-718 limits assumed): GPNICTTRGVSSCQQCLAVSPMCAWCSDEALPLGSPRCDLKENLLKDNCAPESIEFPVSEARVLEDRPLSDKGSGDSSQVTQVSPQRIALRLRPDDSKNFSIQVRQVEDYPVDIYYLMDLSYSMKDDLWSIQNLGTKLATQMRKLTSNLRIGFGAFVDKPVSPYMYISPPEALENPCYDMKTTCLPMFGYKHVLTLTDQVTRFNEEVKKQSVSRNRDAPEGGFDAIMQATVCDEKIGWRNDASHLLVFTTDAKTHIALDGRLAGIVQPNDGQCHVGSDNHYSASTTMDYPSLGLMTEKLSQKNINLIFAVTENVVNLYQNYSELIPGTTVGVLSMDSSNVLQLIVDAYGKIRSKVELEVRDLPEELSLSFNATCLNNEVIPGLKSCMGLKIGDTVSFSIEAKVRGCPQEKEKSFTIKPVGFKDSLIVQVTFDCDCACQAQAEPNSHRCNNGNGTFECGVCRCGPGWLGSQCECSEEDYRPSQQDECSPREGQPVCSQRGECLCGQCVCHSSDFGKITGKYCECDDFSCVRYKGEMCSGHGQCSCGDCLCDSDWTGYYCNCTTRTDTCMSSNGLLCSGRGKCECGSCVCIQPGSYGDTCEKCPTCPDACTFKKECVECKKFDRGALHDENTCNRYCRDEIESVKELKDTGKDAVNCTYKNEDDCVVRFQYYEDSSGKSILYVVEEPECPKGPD
Sequence of human αVβ1 (P06756 31-992 limits assumed): as the sequence (P06756 31-992 limits assumed) above
Sequence of human αVβ1 (P05556 21-728 limits assumed): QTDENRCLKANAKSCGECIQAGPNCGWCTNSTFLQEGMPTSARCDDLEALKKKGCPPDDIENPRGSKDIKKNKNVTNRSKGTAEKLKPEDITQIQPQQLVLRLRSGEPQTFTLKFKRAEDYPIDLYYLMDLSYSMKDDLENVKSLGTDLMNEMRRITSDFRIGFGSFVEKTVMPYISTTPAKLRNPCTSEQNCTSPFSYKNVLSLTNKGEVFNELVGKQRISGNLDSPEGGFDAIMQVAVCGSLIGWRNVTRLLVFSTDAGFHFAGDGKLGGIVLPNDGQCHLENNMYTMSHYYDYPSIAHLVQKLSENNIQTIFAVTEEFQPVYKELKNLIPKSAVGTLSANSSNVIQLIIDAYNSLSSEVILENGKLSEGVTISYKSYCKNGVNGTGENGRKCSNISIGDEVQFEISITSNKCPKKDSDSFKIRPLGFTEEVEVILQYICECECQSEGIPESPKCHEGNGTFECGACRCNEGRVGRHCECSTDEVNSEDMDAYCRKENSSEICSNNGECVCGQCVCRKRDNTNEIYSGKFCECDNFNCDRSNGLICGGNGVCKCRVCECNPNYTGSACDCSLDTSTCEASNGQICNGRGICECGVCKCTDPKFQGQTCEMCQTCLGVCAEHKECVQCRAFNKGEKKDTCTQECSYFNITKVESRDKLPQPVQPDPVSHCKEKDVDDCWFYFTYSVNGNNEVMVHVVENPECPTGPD
Sequence of human αVβ5 (P06756 31-992 limits assumed): as the sequence (P06756 31-992 limits assumed) above
Sequence of human αVβ5 (P18084 24-719 limits assumed): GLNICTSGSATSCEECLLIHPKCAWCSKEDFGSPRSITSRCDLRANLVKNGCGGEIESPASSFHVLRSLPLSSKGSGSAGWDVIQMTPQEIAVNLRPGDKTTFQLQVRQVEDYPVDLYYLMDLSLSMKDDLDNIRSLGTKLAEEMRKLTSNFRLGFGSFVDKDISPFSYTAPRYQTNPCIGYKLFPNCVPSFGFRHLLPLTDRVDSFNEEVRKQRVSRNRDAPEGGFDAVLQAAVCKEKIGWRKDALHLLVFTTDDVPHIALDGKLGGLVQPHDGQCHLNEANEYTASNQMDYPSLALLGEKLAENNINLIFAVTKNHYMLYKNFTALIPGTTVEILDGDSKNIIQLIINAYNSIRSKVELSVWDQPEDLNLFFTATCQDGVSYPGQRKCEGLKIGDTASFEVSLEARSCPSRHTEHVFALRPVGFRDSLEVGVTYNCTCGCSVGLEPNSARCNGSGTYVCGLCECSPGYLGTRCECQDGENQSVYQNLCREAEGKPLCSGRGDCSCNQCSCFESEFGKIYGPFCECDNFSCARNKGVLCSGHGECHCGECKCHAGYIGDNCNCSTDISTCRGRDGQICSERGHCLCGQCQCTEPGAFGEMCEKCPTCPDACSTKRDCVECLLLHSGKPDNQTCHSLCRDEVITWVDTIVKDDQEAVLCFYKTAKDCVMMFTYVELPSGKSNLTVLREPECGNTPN
T1 sequence (P06756 31-992 limits assumed): as the sequence (P06756 31-992 limits assumed) above
T1 sequence (P18564 22-707 limits assumed): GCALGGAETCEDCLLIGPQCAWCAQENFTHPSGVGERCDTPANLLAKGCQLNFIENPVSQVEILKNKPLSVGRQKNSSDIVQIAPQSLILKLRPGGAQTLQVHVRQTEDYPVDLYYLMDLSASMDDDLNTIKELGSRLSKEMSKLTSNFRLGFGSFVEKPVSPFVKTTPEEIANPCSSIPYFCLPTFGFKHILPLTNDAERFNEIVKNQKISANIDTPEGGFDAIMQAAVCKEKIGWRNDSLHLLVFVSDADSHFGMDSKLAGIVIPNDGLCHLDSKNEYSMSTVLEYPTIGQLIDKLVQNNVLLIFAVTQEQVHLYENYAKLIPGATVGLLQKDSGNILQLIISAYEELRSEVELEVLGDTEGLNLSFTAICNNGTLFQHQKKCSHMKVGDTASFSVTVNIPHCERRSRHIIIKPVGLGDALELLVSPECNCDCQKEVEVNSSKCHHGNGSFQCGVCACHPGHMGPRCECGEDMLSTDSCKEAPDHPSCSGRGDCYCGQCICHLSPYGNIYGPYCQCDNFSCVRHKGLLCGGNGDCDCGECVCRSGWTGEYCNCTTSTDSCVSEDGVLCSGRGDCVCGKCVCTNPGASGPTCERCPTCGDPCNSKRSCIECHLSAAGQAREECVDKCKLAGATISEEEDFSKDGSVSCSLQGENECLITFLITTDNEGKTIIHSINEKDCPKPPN

A word on the IC50: it is the concentration that gives 50% inhibition. For the molecule `COc1ccc([C@H](CC(=O)O)NC(=O)N2CC(CCc3ccc4c(n3)NCCC4)C2)cn1` [Example 6, (S)-3-(6-Methoxypyridin-3-yl)-3-(3-(2-(5,6,7,8-tetrahydro-1,8-naphthyridin-2-yl)ethyl)azetidine-1-carboxamido)propanoic acid], the IC50 on human αVβ3 amounted to 6.3 nM; on human αVβ1, 510 nM; on human αVβ6 it was 2.8 nM; at human αVβ5 it was 7.7 nM; on human αVβ8, 430 nM.

As to `Cc1ncc([C@H](CC(=O)O)N2CC(CCCCc3ccc4c(n3)NCCC4)C2)cn1` [Example 26, (S)-3-(2-Methylpyrimidin-5-yl)-3-(3-(4-(5,6,7,8-tetrahydro-1,8-naphthyridin-2-yl)butyl)azetidin-1-yl)propanoic acid], the IC50 on human αVβ3 was 1.76 nM; on human αVβ1, 8630 nM; on human αVβ6, 1.11 nM; on human αVβ5 it was 2 nM.

Consider `COc1ccc([C@H](CC(=O)O)N2CC(CCCCc3ccc4c(n3)NCCC4)C2)cc1F` [Example 27, (S)-3-(3-Fluoro-4-methoxyphenyl)-3-(3-(4-(5,6,7,8-tetrahydro-1,8-naphthyridin-2-yl)butyl)azetidin-1-yl)propanoic acid], for which the IC50 on human αVβ6 was found to be 0.58 nM; on human αVβ8 it was 11 nM.

Consider `Cc1cc(C)c(S(=O)(=O)N[C@@H](CNC(=O)C2CN(CCc3ccc4c(n3)NCCC4)C2)C(=O)O)c(C)c1` [Example 36], for which the IC50 on human αVβ3 amounted to 3.8 nM; at human αVβ6, 0.76 nM; on human αVβ5, 2 nM; on human αVβ8, 9.4 nM.

Regarding `Cc1cc(C)c(S(=O)(=O)N[C@@H](CNC(=O)[C@H]2C[C@@H](CCc3ccc4c(n3)NCCC4)C2)C(=O)O)c(C)c1` [Example 51], the IC50 was 2.1 nM at human αVβ3, 0.33 nM at human αVβ6, 0.44 nM on human αVβ5 and 15 nM on human αVβ8.

In the case of `O=C(O)C[C@H](NC(=O)[C@H]1C[C@@H](CCc2ccc3c(n2)NCCC3)C1)c1cnc2ccccc2c1` [Example 85], the IC50 at human αVβ3 turned out to be 2.1 nM; on human αVβ1, 330 nM; at human αVβ6, 0.68 nM; on human αVβ8, 140 nM.

Regarding `Cc1ncc([C@H](CC(=O)O)NC(=O)[C@H]2C[C@H](CCc3ccc4c(n3)NCCC4)C2)cn1` [Example 86], the IC50 on human αVβ3 is 2.7 nM; on human αVβ6, 1.5 nM; on human αVβ8, 790 nM.

For the molecule `O=C(O)C[C@H](NC(=O)[C@H]1C[C@@H](CCc2ccc3c(n2)NCCC3)C1)c1ccc2c(c1)OCC2` [Example 89], the IC50 turned out to be 1.5 nM on human αVβ3, 2.2 nM at human αVβ6 and 250 nM on human αVβ8.

For `O=C(O)C[C@H](NC(=O)[C@H]1C[C@H](CCc2ccc3c(n2)NCCC3)C1)c1cncnc1` [Example 90], the IC50 turned out to be 120 nM at human αVβ3, 520 nM on human αVβ1, 1.7 nM on human αVβ6 and 1100 nM on human αVβ8.

Consider `O=C(O)C[C@@H](c1ccc2c(c1)OCC2)N1CC(CCCCc2ccc3c(n2)NCCC3)C1=O` (stereo partly shown) [Example 104], for which the IC50 on human αVβ3 is 2.4 nM; at human αVβ1 it was 329 nM; at human αVβ6, 2.23 nM; on human αVβ8 it was 110 nM.

Regarding `Cc1ncc([C@@H](CC(=O)O)N2CC(OCCCc3ccc4c(n3)NCCC4)C2)cn1` [example 132, (R)-3-(2-methylpyrimidin-5-yl)-3-(3-(3-(5,6,7,8-tetrahydro-1,8-naphthyridin-2-yl)propoxy)azetidin-1-yl)propanoic acid], the IC50 at human αVβ6 amounted to 25 nM.

Regarding “(S)-Ethyl 3-(6-methoxypyridin-3-yl)-3-(1-methyl-3-(2-(5,6,7,8-tetrahydro-1,8-naphthyridin-2-yl)ethyl)cyclobutanecarboxamido)propanoate [Example 15]”, the IC50 on human αVβ6 was found to be 5.2 nM.

Regarding “(S)-Ethyl 3-(6-methoxypyridin-3-yl)-3-(1-methyl-3-(2-(5,6,7,8-tetrahydro-1,8-naphthyridin-2-yl)ethyl)cyclobutanecarboxamido)propanoate [Example 16]”, the 50% inhibitory concentration (IC50) on human αVβ6 is 2.6 nM.
